The values below come from PubChem BioAssay AID179 (DTP/NCI, 2004).

Calls of active or inactive are those of the source.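 The calls were made as follows: active = compounds giving half or more protection of infected cells from virus-caused growth loss, again on retest; inactive = the rest.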 Where only a bound is given, the exact number is not on record here.

This test relates to CEM cells HIV-1 protection, formazan growth assay. Briefly: NCI AIDS Antiviral Assay. The note with it: for IC50: measured here: growth of uninfected CEM cells. The method, boiled down: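 Steps: treat uninfected and HIV-1-infected human CEM cells at five drug levels; quantify growth by soluble formazan; retest any compound reaching 50% protection; classify actives from the retest.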

As to `CC(C)(C)[Si](C)(C)OCC1OC(n2ccc(=O)[nH]c2=O)C(O[Si](C)(C)C(C)(C)C)[C@@]12N[C@H](C(N)=O)CS2` (stereo not given in full), the EC50 is > 200 µM and the IC50 was 8.91 µM.

Consider `O=C(Nn1cnn2c(=O)c3ccccc3nc2c1=O)c1ccccc1`, for which the EC50 is > 200 µM and the IC50 was > 200 µM.

For the compound `CC(=O)Nc1cccc(C(CC(=O)O)CC(=O)O)c1`, the EC50 is > 200 µM and the concentration for half-maximal inhibition (IC50) was > 200 µM.

As to `COC(=O)C(N=O)C(=O)OC`, the outcome was inactive.

`c1ccc2[nH]c(CSc3nc4ccccc4s3)nc2c1`: the EC50 was > 200 µM and the IC50 amounted to 120 µM.

As for `N[C@@H](CCC(=O)NC(Cc1ccccc1)C(=O)NCP(=O)(O)O)C(=O)O` (stereo not given in full), the EC50 was > 200 µM and the IC50 was > 200 µM.

For `O=C(/C=C/c1ccc(Cl)cc1)c1ccncc1`, the EC50 is > 40.7 µM and the IC50 was determined as 38 µM.

Turning to `[Cu+2].[O-]/N=C/c1ccc[oH+]1.[O-]/N=C/c1ccc[oH+]1`, the EC50 is > 200 µM and the IC50 is 11.7 µM.

On to `Cc1cccc(C(=O)c2cccc3ccccc23)c1C(=O)O`, for which the outcome was inactive.

`Cc1ncc([N+](=O)[O-])n1CCNC(=O)CCCn1cnc([N+](=O)[O-])n1`: the EC50 was > 200 µM and the IC50 is > 200 µM.

On to `CC1(C)N=C(C(N)=O)c2ncn(CCCO)c2N1`, for which the EC50 was > 200 µM and the IC50 was > 200 µM.

In the case of `N#Cc1nc(Cc2ccccc2)oc1N`, the outcome was inactive.

Regarding `Cc1ccc(C(=O)O/N=C2/CCC/C2=C\c2ccccc2)cc1`, the outcome was inactive.

On to `C=Cc1c2[n-]c(c1C)/C=c1\[n-]/c(c(C)c1C=C)=C\c1[n-]c(c(CCC(=O)O)c1C)/C=c1\[n-]/c(c(C)c1CCC(=O)O)=C\2.[Fe+4]`, for which the EC50 was > 14.5 µM and the IC50 is > 14.5 µM.

For `CC(C)C(C=O)C(O)(C(F)(F)F)C(F)(F)F` (stereo not given), the EC50 is > 200 µM and the half-inhibitory concentration (IC50) was > 200 µM.

Regarding `CC(C)(Oc1ccc(Cl)cc1)C(=O)N(C(=O)N1CCCCC1)c1ccccc1`, the EC50 was > 200 µM and the IC50 turned out to be 13.2 µM.

In the case of `CCOC(=O)CC(=O)NC1CC2CCC1(C)C2(C)C` (stereo not given), the EC50 is > 200 µM and the IC50 is > 200 µM.

On to `Cc1ccc(N=Nc2c(O)c3ccccc3[nH]c2=O)c(S(=O)(=O)N(C)C)c1`, for which the EC50 was > 200 µM and the IC50 was > 200 µM.

Consider `CCCCCN(CCCCC)C(=O)COc1cc2c(O)c3c(O)c(C)c4c(c13)C(=O)C(C)(O/C=C/C(OC)C(C)C(OC(C)=O)C(C)C(O)C(C)C(O)C(C)/C=C/C=C(\C)C(=O)N2)O4` (stereo not given), for which the EC50 was > 200 µM and the IC50 amounted to 7.76 µM.

As for `CCOC(=O)C(CN1CCN(CC(NC=O)(C(=O)OCC)C(=O)OCC)CC1)(NC=O)C(=O)OCC`, the EC50 is > 200 µM and the IC50 was 35.5 µM.

With `O=C(O)c1ccc[n+](CC(=O)c2ccc(O)c(O)c2)c1`, the EC50 is 0.0631 µM and the IC50 is > 200 µM.

Consider `CCOC(=O)CC(NC(=O)c1nc[nH]c1[N+](=O)[O-])C(=O)OCC` (stereo not given), for which the EC50 is > 79.4 µM and the half-inhibitory concentration (IC50) amounted to 39.8 µM.

In the case of `O=C(Nc1ccn(C2CC(I)C(COC(c3ccccc3)(c3ccccc3)c3ccccc3)O2)c(=O)n1)c1ccccc1` (stereo not given), the EC50 was > 200 µM and the 50% inhibitory concentration (IC50) amounted to 7.59 µM.

Consider `CCOC(=O)/C=C\SCCC(=O)O`, for which the EC50 was > 1230 µM and the half-maximal inhibitory concentration (IC50) was > 1230 µM.

As for `O=C1NC(=O)c2ncccc21`, the EC50 is > 200 µM and the half-maximal inhibitory concentration (IC50) was > 200 µM.

Regarding `O=C1Oc2ccccc2C(=O)/C1=C/N1C(=O)CNC1=S`, the EC50 is > 200 µM and the IC50 is > 200 µM.

As for `Fc1ccc(NC2=NCCN=C(Nc3ccc(F)cc3)SS2)cc1`, the EC50 is > 200 µM and the IC50 was 24.5 µM.

As to `CCCC[C@H]1C(=O)O[C@H](C)[C@H](NC(=O)c2cccc(NC=O)c2O)C(=O)O[C@@H](C)[C@@H]1OC(=O)CC(C)C`, the EC50 is > 1 µM and the IC50 was 0.0389 µM.

On to `CC(=N/NC(=S)N1CCCCC1)/C(C)=N\NC(=S)N1CCCCC1`, for which the EC50 is > 200 µM and the 50% inhibitory concentration (IC50) worked out at 2.24 µM.

For `Cc1cccc(Nc2cn(COCc3ccccc3)c(=O)[nH]c2=O)c1`, the EC50 was > 200 µM and the half-inhibitory concentration (IC50) came out at 81.3 µM.

Turning to `C=CCc1cc(/C(CC)=C(/CC)c2ccc(OCCN(CC)CC)c(CC=C)c2)ccc1OCCN(CC)CC`, the EC50 was > 200 µM and the 50% inhibitory concentration (IC50) worked out at 8.32 µM.

For the compound `Nn1c(CCCCCCCCc2nnc(COc3ccc(Cl)cc3)n2N)nnc1COc1ccc(Cl)cc1`, the EC50 was > 200 µM and the concentration for half-maximal inhibition (IC50) is 85.1 µM.

Consider `Cc1cn(C2CC=C(CO)CC2)c(=O)[nH]c1=O` (stereo not given), for which the EC50 is > 1050 µM and the IC50 is > 1050 µM.

For `CC(C)(C)C(=O)OCOP(=O)(OCOC(=O)C(C)(C)C)OCC1OC(N2C=CC(N)NC2=O)CC1F` (stereo not given), the EC50 was 1.12 µM and the IC50 came out at 87.1 µM.

In the case of `COc1cccc(/C=C2\N=C(Cl)OC2=O)c1O`, the EC50 was > 20.4 µM and the 50% inhibitory concentration (IC50) was > 20.4 µM.

For the compound `O=C1CC2(C(=O)O1)C1C(=O)OC(=O)C1C1C=CC=NN12` (stereo not given), the EC50 is > 200 µM and the IC50 was > 200 µM.

As to `CCCCN(CCCC)NC(=S)Nc1ccccc1`, the EC50 is > 35.5 µM and the IC50 was > 35.5 µM.

Consider `O=c1sc(-c2nc3ccccc3[nH]2)c(/N=C/c2ccccc2)n1-c1ccccc1`, for which the EC50 was > 2.63 µM and the concentration for half-maximal inhibition (IC50) was > 2.63 µM.

With `Cc1nn2c(nc1=O)sc1ccc3ccccc3c12`, the EC50 is > 83.2 µM and the IC50 was > 83.2 µM.

For the compound `COC1/C=C/OC2(C)Oc3c(C)c(O)c4c(O)c(cc(OCC(=O)N(C)C5CCCCC5)c4c3C2=O)NC(=O)/C(C)=C/C=C/C(C)C(O)C(C)C(O)C(C)C(OC(C)=O)C1C` (stereo not given), the EC50 was > 200 µM and the half-inhibitory concentration (IC50) was 12.3 µM.

On to `COC(=O)CC1(O)C(/C=C/c2ccccc2)C(C(=O)OC)C(=O)C(C(=O)OC)C1C(=O)OC` (stereo not given), for which the EC50 was > 50.1 µM and the IC50 is 37.2 µM.

Regarding `CC(=O)C1(N=Nc2ccc(S(=O)(=O)Nc3nccc(C)n3)cc2)CCOC1=O` (stereo not given), the EC50 is > 200 µM and the half-maximal inhibitory concentration (IC50) is > 200 µM.

With `CC(=O)c1cc(C(C)=O)c(CC(=O)C(=O)Nc2cccc(C)c2C)nc1CC(=O)C(=O)Nc1cccc(C)c1C`, the EC50 was > 200 µM and the IC50 is > 200 µM.

As for `CC1=C(/C=C/C(C)=C/C2CC(N(C)C)=CC(=O)O2)C(C)(C)CCC1` (stereo not given), the result was inactive.

Consider `NC(N)=N/N=C/c1c(-c2ccc(Cl)cc2)nc2n1CCS2`, for which the EC50 is > 200 µM and the IC50 was 11.2 µM.

On to `NC(N)=NS(=O)(=O)c1ccc(Nc2c3ccccc3nc3c(C(=O)NNCCO)cccc23)cc1`, for which the EC50 was > 200 µM and the IC50 is 5.25 µM.

For the compound `Cc1nc(Nc2ccccc2Cl)c2ccsc2n1`, the outcome was inactive.

In the case of `CCOC(=O)c1cc2cc3c4c(c2oc1=O)CCCN4CCC3`, the EC50 is > 115 µM and the half-inhibitory concentration (IC50) was > 115 µM.

Turning to `O=[N+]([O-])c1ccc(N=Nc2c(F)cc(NCS(=O)(=O)O)cc2F)cc1`, the EC50 was > 100 µM and the IC50 was > 100 µM.

As for `O=S1(=O)CC2C3C=CC(O3)C21` (stereo not given), the EC50 is > 1450 µM and the IC50 is > 1450 µM.

Consider `Cc1ccccc1-n1c2nc(=O)n(C)c(=O)c-2nc2ccccc21`, for which the result was inactive.

In general, EC50 refers to the concentration at which the effect is half-maximal. What is called IC50 is the concentration that inhibits the measured activity by half. Lower therefore signals greater potency.
